PubChem BioAssay (NCI)
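All cell lines were grown in 96-well plates and treated with compound for 48 hours. TGI: total growth inhibition.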

Columns and labels:
Experiment in all cases: inhibition of tumour cell growth, NCI panel, 48 h
SNB-75 CNS = test system: SNB-75 CNS
A549 NSCLC = test system: A549 NSCLC
HS 578T breast = test system: HS 578T breast
NCI-H522 lung = test system: NCI-H522 lung
ACHN renal = test system: ACHN renal
HCT-116 colon = test system: HCT-116 colon
PC-3 prostate = test system: PC-3 prostate
NCI-H23 lung = test system: NCI-H23 lung
SF-295 CNS = test system: SF-295 CNS
NCI-H226 lung = test system: NCI-H226 lung
SK-OV-3 ovarian = test system: SK-OV-3 ovarian
BT-549 breast = test system: BT-549 breast
OVCAR-4 ovarian = test system: OVCAR-4 ovarian
HCT-15 colon = test system: HCT-15 colon
CCRF-CEM leukemia = test system: CCRF-CEM leukemia
HL-60(TB) leukemia = test system: HL-60(TB) leukemia
SK-MEL-5 melanoma = test system: SK-MEL-5 melanoma
K-562 leukemia = test system: K-562 leukemia
MALME-3M melanoma = test system: MALME-3M melanoma
NCI/ADR-RES ovarian = test system: NCI/ADR-RES ovarian
M14 melanoma = test system: M14 melanoma
COLO 205 colon = test system: COLO 205 colon
SF-539 CNS = test system: SF-539 CNS
EKVX NSCLC = test system: EKVX NSCLC
RPMI-8226 leukemia = test system: RPMI-8226 leukemia
A498 renal = test system: A498 renal
HT29 colon = test system: HT29 colon
OVCAR-5 ovarian = test system: OVCAR-5 ovarian
SN12C renal = test system: SN12C renal
UO-31 renal = test system: UO-31 renal
MOLT-4 leukemia = test system: MOLT-4 leukemia
IGROV1 ovarian = test system: IGROV1 ovarian
MDA-N = test system: MDA-N
SK-MEL-28 melanoma = test system: SK-MEL-28 melanoma
DU-145 prostate = test system: DU-145 prostate
CAKI-1 renal = test system: CAKI-1 renal
MCF7 breast = test system: MCF7 breast
LOX IMVI melanoma = test system: LOX IMVI melanoma
RXF 393 renal = test system: RXF 393 renal
HOP-92 NSCLC = test system: HOP-92 NSCLC
NCI-H460 lung = test system: NCI-H460 lung
U251 CNS = test system: U251 CNS
SW-620 colon = test system: SW-620 colon
SNB-19 CNS = test system: SNB-19 CNS
786-0 renal = test system: 786-0 renal
OVCAR-8 ovarian = test system: OVCAR-8 ovarian
KM12 colon = test system: KM12 colon
MDA-MB-231 breast = test system: MDA-MB-231 breast
SR leukemia = test system: SR leukemia
SK-MEL-2 melanoma = test system: SK-MEL-2 melanoma
MDA-MB-435 = test system: MDA-MB-435
OVCAR-3 ovarian = test system: OVCAR-3 ovarian
UACC-62 melanoma = test system: UACC-62 melanoma
SF-268 CNS = test system: SF-268 CNS
T-47D breast = test system: T-47D breast
UACC-257 melanoma = test system: UACC-257 melanoma
HOP-62 NSCLC = test system: HOP-62 NSCLC
TK-10 renal = test system: TK-10 renal
HCC-2998 colon = test system: HCC-2998 colon

Measured: TGI

CCOC(=O)CCC(NC(=O)c1ccc(OCc2nc3cc(C(F)(F)F)ccc3nc2-c2ccccc2)cc1)C(=O)OCC (stereo unspecified)
32.3 µM: COLO 205 colon
38.4 µM: OVCAR-4 ovarian
52.1 µM: SNB-75 CNS
60.4 µM: SK-MEL-5 melanoma
19.4 µM: MCF7 breast
54.1 µM: SK-MEL-2 melanoma
not listed: HOP-62 NSCLC | TK-10 renal | HCC-2998 colon
> 100 µM: all other assays above

Cc1ccc2c(c1)nc(N)n[n+]2[O-]
not listed: MALME-3M melanoma | RXF 393 renal | HOP-92 NSCLC | HCC-2998 colon
> 100 µM: all other assays above

O=C1CC(c2ccco2)C2(C(=O)NC(=O)NC2=O)C(c2ccco2)C1 (stereo unspecified)
not listed: NCI-H226 lung | HOP-92 NSCLC
> 75 µM: all other assays above

CCOC(=O)c1cc(=C2\CCN(CC(C)CC)C2=S)/c(=C(/O)CC)[nH]1 (stereo unspecified)
31.4 µM: UACC-257 melanoma
26.4 µM: CAKI-1 renal
27.3 µM: HL-60(TB) leukemia
36.4 µM: NCI-H522 lung
35.3 µM: EKVX NSCLC
37.1 µM: IGROV1 ovarian
24.9 µM: SF-539 CNS
59.6 µM: HS 578T breast
> 100 µM: A549 NSCLC
30.2 µM: DU-145 prostate
46.3 µM: SF-268 CNS
39.6 µM: HOP-92 NSCLC
30.8 µM: UACC-62 melanoma
75.3 µM: NCI/ADR-RES ovarian
39.2 µM: SN12C renal
28.7 µM: HCT-116 colon
41.2 µM: LOX IMVI melanoma
33.6 µM: NCI-H23 lung
25.4 µM: RPMI-8226 leukemia
38.8 µM: PC-3 prostate
26.5 µM: U251 CNS
30.9 µM: OVCAR-4 ovarian | T-47D breast
44.4 µM: SK-MEL-2 melanoma
35.4 µM: BT-549 breast | UO-31 renal
56.6 µM: OVCAR-8 ovarian
61 µM: MCF7 breast
26.3 µM: SR leukemia
34.8 µM: SK-MEL-28 melanoma
25.9 µM: SW-620 colon
31.8 µM: MDA-MB-231 breast
34.4 µM: SF-295 CNS
48 µM: HT29 colon
45.3 µM: NCI-H226 lung
30.5 µM: 786-0 renal
36.9 µM: SNB-75 CNS
24.6 µM: MOLT-4 leukemia
28.6 µM: TK-10 renal
28.2 µM: MDA-N
24.1 µM: COLO 205 colon
25.8 µM: HCT-15 colon
40.8 µM: NCI-H460 lung
29.6 µM: MDA-MB-435
32 µM: KM12 colon
21.7 µM: CCRF-CEM leukemia
28.9 µM: ACHN renal
29 µM: A498 renal
44.9 µM: RXF 393 renal
48.4 µM: SK-OV-3 ovarian
34.7 µM: SNB-19 CNS
37.8 µM: K-562 leukemia
23.3 µM: MALME-3M melanoma
